Measurements from the RepoRT retention time repository (doi:10.1016/j.chroma.2015.11.014).

Assay: RP, Agilent ZORBAX Eclipse Plus C18, 150 × 2.1 mm, 3.5 µm, 40 °C, 0.3 mL/min, estimated dead time 1.1 min; A: water + 0.1% formic acid; B: acetonitrile + 0.1% formic acid; gradient (min/%B) 0/2 1/2 2/20 16.5/98 22/98
Details: stereoisomer not certain
With `CC(C)(C)OC(=O)C[P+](c1ccccc1)(c1ccccc1)c1ccccc1` the LC retention time was 8.83 min. `Cn1c(=O)c2ncn(C)c2n(C)c1=O` showed an LC retention time of 4.73 min. Work on `C[N+](C)(C)Cc1ccccc1` yielded an LC retention time of 4.46 min. Molecule `COc1ccc2c3c1OC1C(=O)C=CC4(O)C(C2)N(C)CCC314` (configuration not stated) has an LC retention time of 5.37 min. Work on `On1nnc2ccccc21` yielded an LC retention time of 5.24 min. Molecule `CN1C(=O)NC(=O)C1(C)C` has an LC retention time of 5.06 min. `c1ccc2scnc2c1` showed an LC retention time of 8.78 min. With `O=[P+](c1ccccc1)c1ccccc1` the LC retention time was 8.03 min. `CCCC(=NOCC)C1=C(O)CC(CC(C)SCC)CC1=O` (configuration not stated) gave an LC retention time of 16.1 min. With `c1ccc2sc(C3CCCNC3)nc2c1` (configuration not stated) the LC retention time was 5.62 min. Work on `CCCC[N+]1(C)CCCCC1` yielded an LC retention time of 4.66 min. Molecule `CCC(C)(C)C(=O)OC1CC(CO)C=C2C=CC(C)C(CCC3CC(O)CC(=O)O3)C21` (configuration not stated) has an LC retention time of 10.8 min. For `CC12CCC(=O)C=C1CCC1C2CCC2(C)C1CCC2(C)O` (configuration not stated), the LC retention time was 11.6 min. With `c1ccc(C2=NCCN2)cc1` the LC retention time was 4.35 min. `O=S(=O)([O-])CCCC[P+](c1ccccc1)(c1ccccc1)c1ccccc1` gave an LC retention time of 7.14 min. Work on `Nc1ccc(O)c(C(=O)O)c1` yielded an LC retention time of 2.18 min. `CCC(C)C(=O)OC1CC(O)C=C2C=CC(C)C(CCC(O)CC(O)CC(=O)O)C21` (configuration not stated) gave an LC retention time of 8.64 min. `O=[N+]([O-])c1ccc(O)c([N+](=O)[O-])c1` gave an LC retention time of 9.21 min. `CCCCCCCCCCCCCCCCCC[N+](C)(C)Cc1ccccc1` showed an LC retention time of 14.9 min. `CSc1ncnc2c1ncn2C1OC(CO)C(O)C1O` (configuration not stated) showed an LC retention time of 5.67 min. For `Nc1cccc2c1CN(C1CCC(=O)NC1=O)C2=O` (configuration not stated), the LC retention time was 5.24 min. With `CCC1OC(=O)C(C)C(OC2CC(C)(OC)C(O)C(C)O2)C(C)C(OC2OC(C)CC(N(C)C)C2O)C(C)(O)CC(C)CN(C)C(C)C(O)C1(C)O` (configuration not stated) the LC retention time was 6.25 min. `CCOC(=O)NS(=O)(=O)c1ccc(C)cc1` showed an LC retention time of 9.54 min. For `COc1cc(C(=O)c2cnc(N)nc2N)cc(OC)c1OC`, the LC retention time was 5.86 min. In the case of `CC(C)(c1ccc(OP(=O)(Oc2ccccc2)Oc2ccccc2)cc1)c1ccc(OP(=O)(Oc2ccccc2)Oc2ccccc2)cc1`, the LC retention time is reported as 17.7 min. Work on `CC[P+](c1ccccc1)(c1ccccc1)c1ccccc1` yielded an LC retention time of 7.39 min. Work on `COc1ccccc1-c1nc2ccccc2[nH]1` yielded an LC retention time of 6.22 min. Work on `CCOCCOC(=O)Nc1ccc(C)cc1` yielded an LC retention time of 10.8 min. `CC12CC=C3c4ccc(O)cc4CCC3C1CCC2(O)CC#N` (configuration not stated) showed an LC retention time of 9.96 min. `CCOc1ccc(NC(C)=O)cc1` gave an LC retention time of 7.62 min. Molecule `CCP(=O)(c1ccccc1)c1ccccc1` has an LC retention time of 8.82 min. Work on `CCCc1nn(C)c2c(=O)[nH]c(-c3cc(S(=O)(=O)N4CCN(C)CC4)ccc3OCC)nc12` yielded an LC retention time of 7.28 min. For `COC(=O)Nc1nc2ccc(C(=O)c3ccccc3)cc2[nH]1`, the LC retention time was 8.67 min. Molecule `c1ccc(C2CN3CCSC3=N2)cc1` (configuration not stated) has an LC retention time of 5.02 min. Work on `CCNC(=O)C1CC(C)CCC1C(C)C` (configuration not stated) yielded an LC retention time of 11.8 min. For `CCOC(=O)NCCOc1ccc(Oc2ccccc2)cc1`, the LC retention time was 13.1 min. For `CN(C)c1ccc(C=O)cc1`, the LC retention time was 8.87 min. In the case of `CCNc1nc(NC(C)(C)C)nc(S(C)=O)n1` (configuration not stated), the LC retention time is reported as 8.82 min. With `Nc1ccc(O)c([N+](=O)[O-])c1` the LC retention time was 4.69 min. Molecule `CC1(C)CC(N(C=O)CCCCCCN(C=O)C2CC(C)(C)NC(C)(C)C2)CC(C)(C)N1` has an LC retention time of 4.67 min. `O=P(O)(OCc1ccccc1)OCc1ccccc1` gave an LC retention time of 9.05 min. With `CC(C)NCC(O)COc1ccc(CC(=O)O)cc1` (configuration not stated) the LC retention time was 4.89 min. In the case of `Cc1cccc(N(C)C(=S)Oc2ccc3ccccc3c2)c1`, the LC retention time is reported as 15.5 min. In the case of `CC(C)NC(=O)NS(=O)(=O)c1cnccc1Nc1cccc(CO)c1`, the LC retention time is reported as 5.82 min. `C=C(C)C([O-])=NCCC[N+](C)(C)C` showed an LC retention time of 4.7 min. Molecule `O=c1cc(-c2ccccc2)oc2cc(O)cc(O)c12` has an LC retention time of 11 min. In the case of `Cc1cc2n[nH]nc2cc1C`, the LC retention time is reported as 8.01 min. Work on `CC(C)(C)NCC(O)c1cc(O)cc(O)c1` (configuration not stated) yielded an LC retention time of 4.55 min. `CC(C)NCC(O)COc1cccc2[nH]c3ccccc3c12` (configuration not stated) gave an LC retention time of 6.88 min. Molecule `CCCCOCCOP(=O)(OCCOCCCC)OCCOCCCC` has an LC retention time of 14.6 min. `CCC(CC)COC(=O)C(C)NP(=O)(OCC1OC(C#N)(c2ccc3c(N)ncnn23)C(O)C1O)Oc1ccccc1` (configuration not stated) showed an LC retention time of 9.97 min. With `O=C(O)c1ccc(-c2ccccc2-c2nn[nH]n2)cc1` the LC retention time was 8.03 min. `CCCCCCCCn1sccc1=O` gave an LC retention time of 11.9 min. `O=c1[nH]c2ccccc2s1` gave an LC retention time of 7.78 min. `O=C1c2ccccc2C(=O)C1c1nc2ccccc2cc1O` showed an LC retention time of 14.7 min. For `Cc1ncsc1CCO`, the LC retention time was 4.25 min. `COCCOCCOCCOCCOC` gave an LC retention time of 6.01 min. With `CSc1ccc2c(c1)N(CCC1CCCCN1C)c1ccccc1S2` (configuration not stated) the LC retention time was 9.47 min. Work on `CCOc1ccccc1NC(=O)C(=O)Nc1ccccc1CC` yielded an LC retention time of 15.4 min. Work on `CCCCCCN1C=CN(C)C1` yielded an LC retention time of 5.73 min. Work on `CC(C)(C)c1cc([N+](=O)[O-])cc([N+](=O)[O-])c1O` yielded an LC retention time of 13.9 min. For `Cc1cc(N)no1`, the LC retention time was 4.41 min. In the case of `CC1CC2C(C(O)CC3(C)C2CCC3(O)C(=O)CO)C2(C)C=CC(=O)C=C12` (configuration not stated), the LC retention time is reported as 9.02 min. For `Cc1ccccc1N=C(N)N=C(N)N`, the LC retention time was 4.67 min. `CC1(C)SC2C(NC(=O)C(N)c3ccccc3)C(=O)N2C1C(=O)O` (configuration not stated) showed an LC retention time of 5.37 min. In the case of `O=C1OCCOC(=O)c2ccc(cc2)C(=O)OCCOC(=O)c2ccc(cc2)C(=O)OCCOC(=O)c2ccc1cc2`, the LC retention time is reported as 14.5 min. Work on `Nc1nc2c(ncn2C2OC(CO)C(O)C2O)c(=O)[nH]1` (configuration not stated) yielded an LC retention time of 3.15 min. With `O=C1NC(=O)C(c2ccccc2)(c2ccccc2)N1` the LC retention time was 9.18 min. Molecule `O=c1[nH]c(=O)c2cn[nH]c2[nH]1` has an LC retention time of 2.85 min. Work on `Cn1cnc2[nH]c(=O)[nH]c(=O)c21` yielded an LC retention time of 4.44 min. `CCNc1nc(N)[nH]c(=O)n1` showed an LC retention time of 2.31 min. `CCC(C(N)=O)N1CCCC1=O` (configuration not stated) gave an LC retention time of 5.14 min. `CCCCCCCCCCCCCCCC[N+](C)(C)CC` showed an LC retention time of 13 min. `O=P(O)(O)Oc1ccccc1` gave an LC retention time of 3.47 min. Work on `CNc1c(C)n(C)n(-c2ccccc2)c1=O` yielded an LC retention time of 4.82 min. `CC(CN1c2ccccc2Sc2ccccc21)N(C)C` (configuration not stated) showed an LC retention time of 8 min. With `CCCCCCCCOc1ccc(C(=O)c2ccccc2)c(O)c1` the LC retention time was 19 min. `Cc1cc(C)c(C(=O)P(=O)(c2ccccc2)c2ccccc2)c(C)c1` gave an LC retention time of 14.1 min. `O=C([O-])CCCC[P+](c1ccccc1)(c1ccccc1)c1ccccc1` showed an LC retention time of 7.21 min. `c1ccc2sc(NC3CCCCC3)nc2c1` gave an LC retention time of 9.08 min. `CC(=O)Nc1ccc(OC2OC(C(=O)O)C(O)C(O)C2O)cc1` (configuration not stated) showed an LC retention time of 4.58 min. `CC(N)c1nc2ccccc2s1` (configuration not stated) gave an LC retention time of 5.16 min. With `CNNCc1ccc(C(=O)NC(C)C)cc1` the LC retention time was 4.91 min. In the case of `NCC1(CC(=O)O)CCCCC1`, the LC retention time is reported as 4.88 min. Molecule `COc1ccc(Cc2cnc(N)nc2N)cc1OC` has an LC retention time of 4.97 min. `COc1ccc(C(C[N+](C)(C)[O-])C2(O)CCCCC2)cc1` (configuration not stated) showed an LC retention time of 7.25 min. With `CCCCCCCCCCCCCC[N+](C)(C)C` the LC retention time was 11.5 min. Work on `COc1ccc(OC)cc1` yielded an LC retention time of 10.1 min. For `COc1cc(Cc2cnc(N)nc2N)cc(O)c1OC`, the LC retention time was 5.02 min. `Cc1c(O)c(=O)n(-c2ccccc2)n1C` gave an LC retention time of 6.83 min. In the case of `Cc1cc(=O)n(-c2ccccc2)n1C`, the LC retention time is reported as 6.26 min. For `Nc1cccc2[nH]c(-c3ccccc3)nc12`, the LC retention time was 5.28 min. For `CCCCCCCCCCCCCC[N+](C)(C)CCCCCCCCCCCCCC`, the LC retention time was 16.9 min. Molecule `CCCC[N+]1(C)CCCC1` has an LC retention time of 4.27 min. `NCC(O)COc1ccccc1` (configuration not stated) gave an LC retention time of 4.75 min. Work on `NC(=O)N1c2ccccc2CC(=O)c2ccccc21` yielded an LC retention time of 8.32 min. With `Cc1cc2nc3[nH]c(=O)[nH]c(=O)c3nc2cc1C` the LC retention time was 7.07 min. `COc1ccc(C(CN(C)C)C2(O)CCCCC2)cc1` (configuration not stated) gave an LC retention time of 6.63 min. Work on `O=C(c1ccc(O)cc1O)c1ccc(O)cc1O` yielded an LC retention time of 8.37 min. With `COCP(=O)(c1ccccc1)c1ccccc1` the LC retention time was 8.67 min. With `CCCCCCCC[N+](CCCCCCCC)(CCCCCCCC)CCCCCCCC` the LC retention time was 16.2 min. Work on `O=C(NCc1ccccc1)NC1CCCCC1` yielded an LC retention time of 10.3 min. `O=c1[nH]c2c(c(=O)n1C1CCCCC1)CCC2` showed an LC retention time of 9.02 min. Work on `COC(=O)CCCCCCCCC(=O)OC1CC(C)(C)N(C)C(C)(C)C1` yielded an LC retention time of 8.34 min. With `COc1cc(Cc2cnc(N)nc2N)cc(OC)c1O` the LC retention time was 4.78 min. For `CNC(=O)Oc1ccccc1OC(C)C`, the LC retention time was 9.47 min. Molecule `S=c1[nH]c2ccccc2s1` has an LC retention time of 9.12 min. With `COC1=C(C)C(=O)C2=C(C1=O)C(COC(N)=O)C1(OC)C3NC3CN21` (configuration not stated) the LC retention time was 7.05 min. In the case of `NC1=NC(O)c2ncn(COCCO)c2N1` (configuration not stated), the LC retention time is reported as 3.12 min. Molecule `CCCCCCCCCCCCCC[P+](CCCC)(CCCC)CCCC` has an LC retention time of 14.9 min. Work on `C=C(c1ccc(C(=O)O)cc1)c1cc2c(cc1C)C(C)(C)CCC2(C)C` yielded an LC retention time of 17.6 min. In the case of `NC(=O)N1c2ccccc2C2OC2c2ccccc21` (configuration not stated), the LC retention time is reported as 7.59 min. `CCNc1nc(NC(C)(C)C)[nH]c(=O)n1` showed an LC retention time of 5.98 min. `CCC(CCC(C)O)COC(=O)c1ccccc1O` (configuration not stated) gave an LC retention time of 12.9 min. Molecule `CCCCCCCCCCCCOCC[N+](C)(C)Cc1ccccc1` has an LC retention time of 12.7 min. For `CCCCOP(=O)(O)OCCCC`, the LC retention time was 8.01 min. With `CC(C)(C)[P+](=O)C(C)(C)C` the LC retention time was 7.1 min. Work on `CCCCCCCCCCCCCCCCCCCC[N+](C)(C)C` yielded an LC retention time of 15.7 min. `CCOC(=O)C(C)[P+](c1ccccc1)(c1ccccc1)c1ccccc1` (configuration not stated) showed an LC retention time of 8.09 min. Work on `O=c1[nH]c(=S)c2[nH]cnc2[nH]1` yielded an LC retention time of 4.02 min. `CCCCCCCCCC(=O)N(C)C` gave an LC retention time of 13.6 min. Molecule `NCCc1c[nH]c2ccccc12` has an LC retention time of 4.97 min.
